Among the data in PubChem BioAssay (NCI) are GI50 and TGI values, retold here.

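48-hour exposure; five concentrations; linearly interpolated endpoints. At the GI50, growth is halved. At the TGI there is no net growth.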

Test in all cases: NCI-60 cell line screen, 48 h
The test system of assay [1] is CCRF-CEM leukemia.
The test system of assay [2] is EKVX NSCLC.
Assay [3] concerns HOP-62 NSCLC.
Assay [4] deals with LOX IMVI melanoma.
For assay [5], the system named is M14 melanoma.
The test system of assay [6] is RPMI-8226 leukemia.
Assay [7] concerns SK-MEL-28 melanoma.
Assay [8] concerns SK-MEL-5 melanoma.
The test system of assay [9] is SNB-75 CNS.
Assay [10] concerns U251 CNS.

Turning to `COc1ccc(C(=O)/C=C/c2ccc(OCc3cccc(C(F)(F)F)c3)c(OC)c2)cc1OC`, the GI50 in [1] was 38.8 µM; in assay [2], 45.8 µM; in assay [3] it was 51.5 µM; in assay [4], 32.8 µM; in assay [5], 70.9 µM; in assay [6] it was 25.3 µM. Also, the GI50 was 262 µM in assay [7], 38.4 µM in assay [8], 31.6 µM in assay [9] and 61.4 µM in [10]. Moreover, the TGI was more than 1000 µM in assay [1]; more than 1000 µM in [2]; more than 1000 µM in [3]; more than 1000 µM in assay [4]; more than 1000 µM in [5]; 94 µM in [6]. In addition, the TGI in assay [7] was more than 1000 µM; in [8], 301 µM; in assay [9], more than 1000 µM; in assay [10], more than 1000 µM.

For `O=C(CC12C3C4C1C1C2C3C41CC(=O)NO)NO` (centres undefined), the TGI in [1] was 80.1 µM; in [2], more than 100 µM; in assay [3] it was more than 100 µM; in [4], 74.5 µM; in [5] it was more than 100 µM; in assay [6] it was more than 100 µM. For the same compound, the TGI in [7] was more than 100 µM; in assay [8], more than 100 µM; in assay [9], 81 µM; in assay [10], more than 100 µM.

As to `Cc1[nH]nc(C(F)(F)F)c1Cc1sc2c(c1C(=O)N1C[C@](C)(O)CO1)c(=O)n(C)c(=O)n2C(C)C`, the GI50 in [1], in [2], in assay [3], in [4], in assay [5] and in assay [6] was more than 100 µM in each case. For the same compound, the GI50 in assay [7], in assay [8], in assay [9] and in assay [10] was more than 100 µM throughout. Also, the TGI in assay [1], in assay [2], in [3], in assay [4], in assay [5] and in assay [6] was more than 100 µM in each case. Besides, the TGI in assay [7], in assay [8], in assay [9] and in [10] was more than 100 µM each time.

Regarding `CC1(C)OCC2OC(n3cnc4c(N)nc(Cl)nc43)C(OS(C)(=O)=O)C2O1` (centres undefined), the TGI in assay [1], in assay [2], in [3], in assay [4], in assay [5] and in assay [6] was more than 100 µM each time. For the same compound, the TGI in assay [7], in assay [8], in [9] and in [10] was more than 100 µM each time.

Consider `Cc1nnc(N/N=C/c2ccc([N+](=O)[O-])o2)[nH]c1=O`, for which the GI50 in [1] is 0.441 µM; in assay [2] it was 1.05 µM; in [3], 1.45 µM; in assay [4] it was 0.659 µM; in [5] it was 2.89 µM; in assay [6] it was 2.95 µM. For the same compound, the GI50 is 0.815 µM in [7], 0.84 µM in assay [8], 1.36 µM in assay [9] and 0.289 µM in assay [10]. For the same compound, the TGI is more than 100 µM in [2]; more than 68.2 µM in assay [3]; more than 100 µM in assay [4]; more than 100 µM in [5]; more than 32 µM in assay [6]; more than 100 µM in assay [7]. Further, the TGI in assay [8] is 3.3 µM; in assay [9], 67.5 µM; in assay [10] it was more than 100 µM.

`CCC(=O)OCOc1ccc(/C=C2\CCC(CN(C)C)C2=O)cc1` (centres undefined): the TGI was more than 23.1 µM in assay [1]; 37.9 µM in assay [2]; 33.5 µM in assay [3]; 4.1 µM in assay [4]; 9.23 µM in [5]; more than 23.3 µM in [6]. Besides, the TGI came out at 9.73 µM in assay [7], 26.6 µM in assay [8], 27.6 µM in [9] and 26.2 µM in assay [10].

Take `CN1C(=O)N(C)C2C1NC(=S)N2/N=C/C=C/c1ccccc1[N+](=O)[O-]` (centres undefined): the GI50 in [1] is 0.822 µM; in assay [2], 3.86 µM; in [3] it was 1.01 µM; in [4], 0.87 µM; in assay [5], 0.92 µM; in assay [6], 2.74 µM. In addition, the results for the GI50 in [7], in assay [8] and in assay [9] were 3.7 µM, 0.753 µM and 0.319 µM, respectively. Further, the TGI in assay [1], in [2], in assay [3], in assay [4], in assay [5] and in assay [6] was more than 100 µM each time. The TGI in assay [7], in assay [8] and in assay [9] was more than 100 µM throughout.

Regarding `COC(=O)[C@]1(C)CCC[C@@]2(C)C3=C(CC[C@H]12)C[C@@H](CC(OC(C)=O)OC(C)=O)[C@@H](C)C3`, the GI50 in assay [2] was 11.7 µM; in assay [3], 11.3 µM; in assay [4], more than 50 µM; in assay [5], 11.1 µM; in assay [6] it was 5.23 µM; in [7] it was 11.5 µM. For the same compound, the results for the GI50 in assay [8], in assay [9] and in [10] were 8.4 µM, 14.1 µM and 13.4 µM, respectively. Also, the TGI was 23.9 µM in [2]; 23.4 µM in assay [3]; more than 50 µM in assay [4]; 20 µM in [5]; 27.7 µM in assay [6]; 24.5 µM in assay [7]. Besides, the TGI in [8] is 15.6 µM; in assay [9], 30.5 µM; in assay [10] it was more than 28.9 µM.

As to `Cc1cc(-c2ccccc2)nc(Nc2cc3ccccc3[nH]2)n1`, the TGI in assay [1], in [2], in assay [3], in assay [4], in [5] and in [6] was more than 100 µM each time. In addition, the TGI in assay [7], in assay [8] and in [10] was more than 100 µM in each case.
